The values below come from patent US4051244A, “2,4-Diamino 5-bromo 6-chloro pyrimidines, process for their preparation and use as pharmaceuticals” (Mar-Pha Societe d'Etudes et d'Exploitation de Marques, priority 1975, dated 1977).

Series [1] can be described thus: LD 50 in the mouse, intravenous (cumulative method of Reed and Muench). Conditions: in vivo. As for the experimental part:
(§1) The toxicities of the products according to the invention have been determined on the mouse CD 1 (Charles River) by intravenous and oral methods. The lethal doses 50% (LD 50) are calculated by the cumulative method of Reed J. J. and Muench, H. (Am. J. Hyg. 27, 493, 1938).

Series [2] can be described thus: LD 50 in the mouse, oral (cumulative method of Reed and Muench). Conditions: in vivo. As for the experimental part:
as §1

In series [3] the test system is vomitings induced by apomorphine. Description: Anti-emetic test: vomitings induced by apomorphine in the dog, oral. Type of series: in vivo. Conditions: mongrel dog; for ED50: Canis lupus familiaris, read-out: DE 50, dose diminishing by 50% the number of vomitings induced by apomorphine. The text has this:
The anti-emetic properties of the compounds according to the invention are shown by oral way in the mongrel dog in tests in which vomitings are induced by apomorphine according to Chen, G. and Ensor, C. (J. Pharmacol exp. Ther. 98, 24, 1950).
The results are expressed by a DE 50 which represents the dose of product capable of diminishing by 50% the number of vomitings induced by the agent.

In series [4] the test system is bronchospasms induced by serotonine. Description: Bronchospasms using serotonine in guinea pigs, intravenous. Type of series: in vivo, Albinos Hartley guinea-pigs. Conditions: Cavia porcellus, i.v., anesthesized guinea-pigs, read-out: DE 50, dose reducing by 50% the amplitude of bronchospasms using serotonine in guinea pigs. The text has this:
(§2) The anti-serotonine properties of the compounds according to the invention are shown in vitro and in vivo.
In vivo, the products are applied by intra-venous way to anesthesized Albinos Hartley guinea-pigs. A method originated from Konzett, H. and Rossler, R. is employed (Naunyn. Schmiedeberg's Arch. exp. Path. Pharmakol, 195, 71, 1940). The results, shown in the table hereunder, are expressed by a DE 50 which represents the dose capable of reducing by 50% the amplitude of bronchospasms induced by the administration of serotonine.

Series [5] relates to ulcer induced by reserpine. Description: Protection against the ulcer induced by reserpine in a rat, acute oral. Type of series: in vivo, rat CD (Charles River). The following applies: for antiulcer properties (in words): p.o., reserpine and constraint ulcer; for ED50: po, read-out: DA 50, dose protecting 50% of the animals against the ulcer induced by reserpine in a rat. The source says:
(§3) The anti-ulcer properties of the products according to the invention are shown in the rat CD (Charles River) by acute oral administration using two techniques.
The first technique studies the activity of the product in connection with the experimental ulcer induced by […] according to Brodie, D. A. (Gastroenterology, 43, 675, 1962). The result is expressed by a DA 50 which represents the dose in mg/kg capable of protecting 50% of the animals against the least trace of ulceration of the mucous gastric system.

In series [6] the test system is isolated duodenum, spasms induced by acetylcholine. Description: Spasms of the isolated duodenum of a rat induced by acetylcholine (neurotropic). The following applies: for spasmolytic effects, both musculotropic and neurotropic (in words): acetylcholine and barium chloride. The text has this: (§4) The anti-spasmodic properties of the compounds according to the invention are shown by use of the technique of Magnus, R. (Ges. Physiol. 102, 123, 1904) in connection with the spasms of the isolated duodenum of a rat caused by either acetylcholine to research an effect of neurotropic type or by barium chloride to research an effect of musculotropic type.
(§5) The results, shown hereunder, are expressed by a CE 50 which represents the concentration of product in mg/1 capable of decreasing by 50% the amplitude of spasms thus induced.

For series [7], the system named is isolated duodenum, spasms induced by barium chloride. Description: Spasms of the isolated duodenum of a rat induced by barium chloride (musculotropic).
Source text: as §4, §5

The test system of series [8] is isolated uterus, spasms induced by serotonine. Description: Spasms of isolated uterus of rat induced by serotonine. Further details: species or system rat CD (Charles River). The following applies: for CE 50, spasms of isolated uterus of rat induced by serotonine: in vitro.
Source text: as §2
In vitro, the action of the products on the spasms induced by the serotonine in the isolated uterus of a rat (rat CD Charles River) is shown, according to the technique of Fanchamps, A., Doepfner, W., Weidman, H. and Cerletti, (A. Schw. Med. Worsch. 90, 1040, 1960). The results, shown in the table hereunder, are expressed by a CE 50 which represents the concentration in mg/1 of the product capable of decreasing by 50% the amplitude of spasms induced by the serotonine.

Series [9] relates to cerebral phosphodiesterases. Description: Inhibition of the phosphodiesterases of the brain. Type of series: biochemical, rat CD (Charles River). The text has this: The phosphodiesterasic activity is shown by the method of Kukovetz E. R. and Poech, G. (Arch. Pharmakol. 1970, 267, 189) by utilizing the supernatant part obtained after centrifugation at 10,000 G of the brain of male rats CD (Charles River).
The inhibiting action of the compounds according to the invention on the cerebral phosphodiesterases has been tested and expressed by an inhibiting concentration 50% (CI 50) in micromoles.

Series [10] deals with constraint ulcer. Description: Protection against constraint ulcer, acute oral. In kind it is in vivo, rat CD (Charles River). The following applies: p.o., rat, 24 hours constraint, read-out: DE 50, dose decreasing by 50% the ulcerating effect (constraint ulcer).
Source text: as §3
The second studies the activity of the product in connection with the constraint ulcer according to Rossi, G., Bonfils, S., Leifooche, G. and Lambling A. (C.R. Soc. Biol. 150, 2124, 1956). The result is expressed by a DE 50 which represents the dose of the substance in mg/kg capable of decreasing by 50% the ulcerating effect caused by the 24 hours constraint.

One may read the LD50 as the dose expected to kill half of the subjects tested. A low value points to a more toxic substance. Consider `CNc1nc(Cl)c(Br)c(N2CCN(C)CC2)n1` [Example 1, 2-methylamino-4-(N-methylpiperazinyl) 5-bromo 6-chloro pyrimidine], for which the LD50 was found to be 55 mg/kg in series [1] and 100 mg/kg in series [2]. Besides, the ED50 stood at 1 mg/kg in [3] and 0.08 mg/kg in series [4].

`CC(C)Nc1nc(N2CCN(C)CC2)nc(Cl)c1Br` [Example 2, 2-(N-methylpiperazinyl) 4,isopropylamino 5-bromo 6-chloro pyrimidine]: the values for the LD50 in [1] and in [2] were 83 mg/kg and 675 mg/kg, respectively. For the same molecule, the “antiulcer properties (in words)” value in series [5] is listed as “outstanding antiulcer properties”. Also, the values for the ED50 in series [5], in [3] and in [4] were 100 mg/kg, greater than 5 mg/kg and 0.45 mg/kg, respectively. Besides, the “CE 50, concentration decreasing by 50% the amplitude of spasms induced by acetyl-choline” value in series [6] stood at 5.5 mg/L. Further, the “CE 50, concentration decreasing by 50% the amplitude of spasms induced by barium chloride” value in [7] is 3 mg/L. Moreover, the “CE 50, spasms of isolated uterus of rat induced by serotonine” value (shortened to “CE 50, spasms”) in series [8] worked out at 0.07 mg/L. Also, the “inhibiting action on the cerebral phosphodiesterases (in words)” value in series [9] (rat brain supernatant) is reported as “interesting inhibiting action”. Also, the IC50 in series [9] (supernatant of brain of male rats, 10,000 G, read-out: CI 50, inhibiting concentration 50% on the cerebral phosphodiesterases) turned out to be 40 µM.

Regarding `CC(C)Nc1nc(Cl)c(Br)c(N2CCN(C)CC2)n1` [Example 3], the 50% lethal dose (LD50) in series [1] is 86 mg/kg; in series [2] it was 200 mg/kg. In addition, the “antiulcer properties (in words)” value in series [5] was “outstanding antiulcer properties”. Moreover, the ED50 was 20 mg/kg in series [5], 12 mg/kg in series [10], 1.4 mg/kg in [3] and 0.85 mg/kg in [4]. Moreover, the “CE 50, concentration decreasing by 50% the amplitude of spasms induced by acetyl-choline” value in series [6] came out at 1.8 mg/L. In addition, the “spasmolytic effects, both musculotropic and neurotropic (in words)” value (“spasmolytic effects” below) in [6] was “very interesting”. The “CE 50, concentration decreasing by 50% the amplitude of spasms induced by barium chloride” value in series [7] came out at 0.6 mg/L. In series [3] (apomorphine), the “anti-emetic activity (in words)” value was “very important anti-emetic activity”. The “anti-serotonine activity (in words)” value in series [8] (in vitro (rat uterus) and in vivo (guinea pig)) was “very high anti-serotonine activity”. For the same molecule, the “CE 50, spasms” value in [8] was determined as 0.004 mg/L.

For the molecule `CCCCCCCNc1nc(Cl)c(Br)c(N2CCN(C)CC2)n1` [Example 4], the 50% lethal dose (LD50) in [2] was greater than 900 mg/kg. The ED50 in [5] was greater than 100 mg/kg. In series [6], the “CE 50, concentration decreasing by 50% the amplitude of spasms induced by acetyl-choline” value is 1.4 mg/L; the “spasmolytic effects” value is on record as “very interesting”. For the same molecule, in series [7], the “CE 50, concentration decreasing by 50% the amplitude of spasms induced by barium chloride” value turned out to be 1.3 mg/L. Further, the “CE 50, spasms” value in series [8] stood at 0.35 mg/L.

For the molecule `CN1CCN(c2nc(N)nc(Cl)c2Br)CC1` [Example 6], in series [1], the LD50 was 48 mg/kg. This molecule also registered an LD50 in series [2] of 600 mg/kg. Also, the ED50 in [5] was greater than 100 mg/kg. Moreover, in [6], the “CE 50, concentration decreasing by 50% the amplitude of spasms induced by acetyl-choline” value stood at 4 mg/L; the “spasmolytic effects” value was “very interesting”. Besides, the “CE 50, concentration decreasing by 50% the amplitude of spasms induced by barium chloride” value in [7] came to 0.2 mg/L. Moreover, in [8], the “CE 50, spasms” value was determined as 0.05 mg/L.

Consider `Cc1ccc(N(C)c2nc(Cl)c(Br)c(N3CCN(C)CC3)n2)cc1` [Example 7], for which, in [1], the median lethal dose (LD50) is 83 mg/kg. Further, the 50% lethal dose (LD50) in series [2] was greater than 900 mg/kg. Also, the ED50 in [5] is greater than 100 mg/kg. Also, in series [6], the “CE 50, concentration decreasing by 50% the amplitude of spasms induced by acetyl-choline” value worked out at 1.4 mg/L; the “spasmolytic effects” value is “very interesting”. Further, in [7], the “CE 50, concentration decreasing by 50% the amplitude of spasms induced by barium chloride” value amounted to 0.6 mg/L. The “CE 50, spasms” value in [8] is 0.05 mg/L.

In turn, `Cc1ccc(N(C)c2nc(Cl)c(Br)c(NCCN(C(C)C)C(C)C)n2)cc1` [Example 9] displayed an LD50 in series [2] of 675 mg/kg. In addition, the ED50 in [5] worked out at 300 mg/kg. In series [8], the “CE 50, spasms” value was 0.33 mg/L.
